pIC50, pKd: −log10 of the molar value. Like-named read-outs stand apart in the source and are kept apart here. Each block holds one molecule with its values, some of them ahead of it.
Experiments:
human α1A-adrenoceptor = target: T1, human α1A-adrenoceptor (Homo sapiens, UniProt P35348); experiment: [3H]prazosin whole-cell competition binding, CHO-α1A cells
T1 construct: CHO cells stably expressing either the full‐length human α1A, α1B, or α1D‐adrenoceptor
T1 sequence (P35348 1-466): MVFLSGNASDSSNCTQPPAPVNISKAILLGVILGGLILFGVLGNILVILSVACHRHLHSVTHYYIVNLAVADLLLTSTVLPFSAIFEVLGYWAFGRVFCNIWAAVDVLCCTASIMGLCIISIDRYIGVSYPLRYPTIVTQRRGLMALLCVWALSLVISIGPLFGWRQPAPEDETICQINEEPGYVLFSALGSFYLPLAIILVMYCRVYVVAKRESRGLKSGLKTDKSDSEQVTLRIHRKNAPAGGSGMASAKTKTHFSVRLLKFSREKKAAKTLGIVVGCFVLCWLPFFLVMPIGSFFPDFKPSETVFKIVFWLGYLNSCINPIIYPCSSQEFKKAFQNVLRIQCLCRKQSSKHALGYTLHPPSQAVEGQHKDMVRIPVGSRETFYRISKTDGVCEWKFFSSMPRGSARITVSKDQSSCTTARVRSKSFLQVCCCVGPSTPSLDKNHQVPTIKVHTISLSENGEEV

[1] = target: T2, full-length human α1D-adrenoceptor (Homo sapiens, UniProt P25100); experiment: [3H]prazosin whole-cell competition binding, CHO-α1D cells; settings: for % site 1 α1D: percentage of inhibition through first component, control
T2 sequence (P25100 1-572): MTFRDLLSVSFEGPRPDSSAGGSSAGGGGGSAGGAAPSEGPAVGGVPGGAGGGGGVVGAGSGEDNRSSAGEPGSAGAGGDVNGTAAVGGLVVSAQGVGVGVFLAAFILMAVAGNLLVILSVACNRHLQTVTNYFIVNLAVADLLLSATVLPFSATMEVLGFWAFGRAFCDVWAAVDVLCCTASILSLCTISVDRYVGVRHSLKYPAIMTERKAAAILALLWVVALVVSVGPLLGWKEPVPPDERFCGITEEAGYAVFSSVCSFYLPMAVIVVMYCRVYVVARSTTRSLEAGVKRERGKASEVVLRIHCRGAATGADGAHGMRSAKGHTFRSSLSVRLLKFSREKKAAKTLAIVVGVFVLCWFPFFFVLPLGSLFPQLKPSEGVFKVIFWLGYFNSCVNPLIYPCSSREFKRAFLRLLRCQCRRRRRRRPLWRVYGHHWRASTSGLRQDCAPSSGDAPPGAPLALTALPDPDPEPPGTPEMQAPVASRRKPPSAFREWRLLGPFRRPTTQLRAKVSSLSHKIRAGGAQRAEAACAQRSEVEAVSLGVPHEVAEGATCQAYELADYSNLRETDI

human α1B-adrenoceptor = target: T3, human α1B-adrenoceptor (Homo sapiens, UniProt P35368); experiment: [3H]prazosin whole-cell competition binding, CHO-α1B cells; settings: for Log KD α1B: result in words: no inhibition of [3H]prazosin binding at maximum concentration possible; for binding at α1B: result in words in the Log KD α1B column; for binding at α1B (result in words): up to the maximum concentration
T3 construct: CHO cells stably expressing either the full‐length human α1A, α1B, or α1D‐adrenoceptor
T3 sequence (P35368 1-520): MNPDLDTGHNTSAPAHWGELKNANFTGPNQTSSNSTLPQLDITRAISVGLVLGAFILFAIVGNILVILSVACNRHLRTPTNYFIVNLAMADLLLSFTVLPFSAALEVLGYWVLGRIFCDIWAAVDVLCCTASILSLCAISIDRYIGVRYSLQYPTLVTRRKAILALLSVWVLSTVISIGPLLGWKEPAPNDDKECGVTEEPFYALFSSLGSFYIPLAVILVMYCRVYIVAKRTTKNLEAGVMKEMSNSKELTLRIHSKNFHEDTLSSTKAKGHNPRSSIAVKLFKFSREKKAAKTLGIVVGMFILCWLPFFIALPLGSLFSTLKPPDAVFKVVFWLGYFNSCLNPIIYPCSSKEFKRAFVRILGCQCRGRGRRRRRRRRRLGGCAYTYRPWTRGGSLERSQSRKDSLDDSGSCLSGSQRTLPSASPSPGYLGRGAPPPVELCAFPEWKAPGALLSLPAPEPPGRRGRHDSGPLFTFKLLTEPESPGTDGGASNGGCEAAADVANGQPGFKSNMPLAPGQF

[2] = single-component inhibition curve, given as log KD (negative), mean ± SE mean
[3] = ratio of KD values, higher α1A affinity, 1.0 under vs = none
[4] = ratio of KD values, printed under α1A = higher α1A affinity, 1.0 under vs = none
[5] = ratio, 1 = no selectivity for a subtype over another
[6] = selectivity ratio, 1 = no selectivity for a given receptor subtype over another
[7] = ratio of KD values, higher α1D affinity (site 1 KD)

Log KD α1A (human α1A-adrenoceptor; [2]): −8.19 ± 0.09
% site 1 α1D [1]: 57.6 ± 2.8% site 1
Log KD α1B (human α1B-adrenoceptor; [2]): −6.95 ± 0.05
Compound: O=C1Nc2ccccc2C2=NC(CN3CCN(c4ccccc4)CC3)CN12 (centres unmarked) [2‐PMDQ]

Compound: COc1ccccc1N1CCN(CCCNc2c(C)c(=O)n(C)c(=O)n2C)CC1 [5-methyl-urapidil]
Log KD α1A (human α1A-adrenoceptor): -8.23 ± 0.05
selectivity α1A vs 1D (human α1A-adrenoceptor): 417
selectivity α1A vs α1B (human α1A-adrenoceptor): 148
Log KD α1D [1]: -5.61 ± 0.07
Log KD α1B (human α1B-adrenoceptor): -6.06 ± 0.04
selectivity α1B vs α1D (human α1B-adrenoceptor): 2.8

Compound: COc1ccccc1N1CCN(CCCNc2c(C)c(=O)n(C)c(=O)n2C)CC1 [5‐methyl‐urapidil]
Selectivity ratio α1A vs α1B (human α1A-adrenoceptor): 148 fold
Selectivity ratio α1A vs α1D (human α1A-adrenoceptor): 417 fold
Log KD α1A (human α1A-adrenoceptor; [2]): −8.23 ± 0.05
Log KD α1D [1, 2]: −5.61 ± 0.07
Log KD α1B (human α1B-adrenoceptor): −6.06 ± 0.04
Selectivity ratio α1B vs α1D (human α1B-adrenoceptor): 2.8 fold

Selectivity ratio α1A vs α1D (human α1A-adrenoceptor; [3]): 3.1 fold
Selectivity ratio α1A vs α1B (human α1A-adrenoceptor; [4]): 3.1 fold
selectivity α1A vs 1D (human α1A-adrenoceptor; [5]): 3.1
selectivity α1A vs α1B (human α1A-adrenoceptor; [5]): 3.1
selectivities α1A vs α1B (human α1A-adrenoceptor; [6]): 3.1
selectivities α1A vs α1D (human α1A-adrenoceptor; [6]): 3.1
Log KD α1A (human α1A-adrenoceptor; [2]): −6.57 ± 0.05
Selectivity ratio α1B vs α1D [1, 7]: 1.0 fold
Log KD α1D [1, 2]: −6.07 ± 0.07
selectivity α1B vs α1D (human α1B-adrenoceptor; [5]): 1.0
Log KD α1B (human α1B-adrenoceptor; [2]): −6.08 ± 0.02
Compound: COc1cccc2c1CCC[C@H]2CN(C)CCc1ccc2ccoc2c1.CS(=O)(=O)O [A80426]

Selectivity ratio α1A vs α1D (human α1A-adrenoceptor; [3]): 32 fold
Selectivity ratio α1A vs α1B (human α1A-adrenoceptor; [4]): 6.8 fold
Log KD α1A (human α1A-adrenoceptor; [2]): −6.48 ± 0.03
Log KD α1D [1, 2]: −4.98 ± 0.06
Selectivity ratio α1B vs α1D (human α1B-adrenoceptor; ratio of KD values, higher α1B affinity, 1.0 under vs = none): 4.7 fold
Log KD α1B (human α1B-adrenoceptor; [2]): −5.65 ± 0.09
Compound: N=C(CC(O)COc1ccccc1-c1ccccc1)N1CCCCC1 (centres unmarked) [AH11110A]

Log KD α1A (human α1A-adrenoceptor; [2]): −9.35 ± 0.08
% site 1 α1D [1]: 60.5 ± 1.4% site 1
Log KD α1B (human α1B-adrenoceptor; [2]): −8.15 ± 0.07
Compound: COc1ccccc1N1CCN(CCN2C(=O)c3ccccc3C(C)(C)C2=O)CC1 [ARC239]

Kd (human α1A-adrenoceptor; app: top concentration inhibited most but not all specific binding, curve extrapolated, read-out: Log KD α1A (apparent) (converted)): 26.9 µM
Selectivity ratio α1A vs α1B (human α1A-adrenoceptor; [4]): >3.7 fold
pIC50 [1]: < 4.50
Log KD α1B: result in words (human α1B-adrenoceptor): No binding to 100 µmol/L
binding at α1B (human α1B-adrenoceptor): No binding to 100µM
binding at α1B (result in words) (human α1B-adrenoceptor): No binding to 100µM
Compound: COc1ccc2cccc(CCNC(C)=O)c2c1 [Agomelatine]

Compound: CCN1CCCC1CNC(=O)c1cc(S(=O)(=O)CC)c(N)cc1OC (centres unmarked) [Amisulpiride]
Log KD α1A (human α1A-adrenoceptor; [2]): −5.05 ± 0.04
Log KD α1D (apparent) ([1]; app: top concentration inhibited most but not all specific binding, curve extrapolated): −4.55 ± 0.08^app
Log KD α1B: result in words (human α1B-adrenoceptor): No binding to 100 µmol/L
binding at α1B (human α1B-adrenoceptor): No binding to 100µM
binding at α1B (result in words) (human α1B-adrenoceptor): No binding to 100µM

Compound: Cc1ccc(/N=C/N(C)/C=N/c2ccc(C)cc2C)c(C)c1 [Amitraz]
Selectivity ratio α1A vs α1B (human α1A-adrenoceptor): >33 fold
Selectivity ratio α1A vs α1D (human α1A-adrenoceptor): 2.8 fold
Kd (human α1A-adrenoceptor; single-component inhibition curve, given as log KD (negative), mean ± SE mean, read-out: Log KD α1A (converted)): 3.02 µM
pKd [1]: 5.08
Selectivity ratio α1B vs α1D [1]: >12 fold
selectivity α1B vs α1D (human α1B-adrenoceptor; [5]): >12
IC50 (human α1B-adrenoceptor; read-out: Log IC50 α1B (converted)): > 100 µM

Selectivity ratio α1A vs α1B (human α1A-adrenoceptor): 93 fold
Selectivity ratio α1A vs α1D (human α1A-adrenoceptor): 87 fold
selectivities α1A vs α1B (human α1A-adrenoceptor): 93
selectivity α1A vs α1B (human α1A-adrenoceptor): 93
pKd (human α1A-adrenoceptor; Log KD α1A, single-component inhibition curve, given as log KD (negative), mean ± SE mean): 8.19
pKd ([1]; Log KD α1D, single-component inhibition curve, given as log KD (negative), mean ± SE mean): 6.25
Selectivity ratio α1B vs α1D [1, 7]: 1.1 fold
selectivity α1B vs α1D (human α1B-adrenoceptor; [5]): 1.1
Kd (human α1B-adrenoceptor; single-component inhibition curve, given as log KD (negative), mean ± SE mean, read-out: Log KD α1B (converted)): 603 nM
Compound: CN(C)CCC=C1c2ccccc2CCc2ccccc21 [Amitriptyline]

Reference: publication PMC7327383, “The affinity and selectivity of α‐adrenoceptor antagonists, antidepressants, and antipsychotics for the human α1A, α1B, and α1D‐adrenoceptors” (Pharmacology Research & Perspectives, 2020)
